The text below walks through data of paper PMC7915724 (2021).

Holding throughout (experiment): SPR
Background: In SPR one partner is held on a chip, and binding of the other changes the refractive index at the surface.

Assay [1] has as its system biotin-Py24 (VEGF i-motif) (DNA, i motif) GACCCCGCCCCCGGCCCGCCCCGG
Particulars: 100 mM KCl; 20 mM MES pH 5.5, 0.05% Tween-20, 25 °C; tested up to 50 μM.

Assay [2] relates to biotin-Hairpin (duplex DNA) (DNA, hairpin, HEG (hexaethylene glycol) linker between 10 and 11) TATAGCTATATATAGCTATA
Particulars: 100 mM KCl; 20 mM Tris-HCl pH 7.4, 25 °C; tested up to 50 μM.

Assay [3] relates to biotin-Pu24 (VEGF G-quadruplex) (DNA, G4) CCGGGGCGGGCCGGGGGCGGGGTC
Particulars: 100 mM KCl; 20 mM Tris-HCl pH 7.4, 25 °C; tested up to 50 μM.

Assay [4] relates to biotin-Py24 (VEGF i-motif) (DNA, i motif) GACCCCGCCCCCGGCCCGCCCCGG
The note with it: 100 mM KCl, 20 mM MES pH 5.5, 0.05% Tween-20, 25 °C.

By KD is commonly meant the free concentration of one partner at which half of the binding sites on the other are occupied at equilibrium, for simple one-to-one binding. `CC(=O)OC[C@H]1O[C@@H](n2cc(CNC(=O)[C@]34CCC(C)(C)C[C@H]3C3=CC[C@@H]5[C@@]6(C)CC[C@H](O)C(C)(C)[C@@H]6CC[C@@]5(C)[C@]3(C)CC4)nn2)[C@H](OC(C)=O)[C@@H](OC(C)=O)[C@@H]1OC(C)=O` returned a KD in assay [1] greater than 50 µM.
For the compound `CC1(C)CC[C@]2(C(=O)N3CCN(C(=O)Cn4cnc5[nH]c(=O)[nH]c(=O)c54)CC3)CC[C@]3(C)C(=CC[C@@H]4[C@@]5(C)CC[C@H](O)C(C)(C)[C@@H]5CC[C@]43C)[C@@H]2C1`, the KD in assay [2], in assay [1] and in assay [3] was greater than 50 µM in each case.
As for `CC1(C)CC[C@]2(C(=O)N3CCN(c4ccc(F)cc4F)CC3)CC[C@]3(C)C(=CC[C@@H]4[C@@]5(C)CC[C@H](O)C(C)(C)[C@@H]5CC[C@]43C)[C@@H]2C1`, the KD in assay [2], in assay [1] and in assay [3] was greater than 50 µM each time.
As for `CC1(C)CC[C@]2(C(=O)N3CCN(c4cccc(C(F)(F)F)c4)CC3)CC[C@]3(C)C(=CC[C@@H]4[C@@]5(C)CC[C@H](O)C(C)(C)[C@@H]5CC[C@]43C)[C@@H]2C1`, the equilibrium dissociation constant (KD) in assay [2], in assay [1] and in assay [3] was greater than 50 µM throughout.
Turning to `CC1(C)CC[C@]2(C(=O)N3CCN(c4ccccn4)CC3)CC[C@]3(C)C(=CC[C@@H]4[C@@]5(C)CC[C@H](O)C(C)(C)[C@@H]5CC[C@]43C)[C@@H]2C1`, the equilibrium dissociation constant (KD) in assay [2], in assay [1] and in assay [3] was greater than 50 µM in each case.
`CC1(C)CC[C@]2(C(=O)N3CCN(c4ncccn4)CC3)CC[C@]3(C)C(=CC[C@@H]4[C@@]5(C)CC[C@H](O)C(C)(C)[C@@H]5CC[C@]43C)[C@@H]2C1`: the dissociation constant (KD) in assay [2], in assay [1] and in assay [3] was greater than 50 µM in each case.
For `CC1(C)CC[C@]2(C(=O)NCCNC(=O)c3ccccc3Nc3ccccc3)CC[C@]3(C)C(=CC[C@@H]4[C@@]5(C)CC[C@H](O)C(C)(C)[C@@H]5CC[C@]43C)[C@@H]2C1`, the dissociation constant KD in assay [2], in assay [1] and in assay [3] was greater than 50 µM in each case.
Consider `CC1(C)CC[C@]2(C(=O)NCCNS(=O)(=O)N3CCOCC3)CC[C@]3(C)C(=CC[C@@H]4[C@@]5(C)CC[C@H](O)C(C)(C)[C@@H]5CC[C@]43C)[C@@H]2C1`, for which the KD is greater than 50 µM in assay [2], 13.8 µM in assay [4] and greater than 50 µM in assay [3].
For the compound `CC1(C)CC[C@]2(C(=O)NCCc3c[nH]cn3)CC[C@]3(C)C(=CC[C@@H]4[C@@]5(C)CC[C@H](O)C(C)(C)[C@@H]5CC[C@]43C)[C@@H]2C1`, the KD in assay [2] is greater than 50 µM; in assay [4], 12.1 µM; in assay [3] it was greater than 50 µM.
On to `CC1(C)CC[C@]2(C(=O)NCc3cn(-c4ncccn4)nn3)CC[C@]3(C)C(=CC[C@@H]4[C@@]5(C)CC[C@H](O)C(C)(C)[C@@H]5CC[C@]43C)[C@@H]2C1`, for which the dissociation constant KD was greater than 50 µM in assay [2], 12.3 µM in assay [4] and greater than 50 µM in assay [3].
Regarding `CC1(C)CC[C@]2(C(=O)NCc3cn(CCC#N)nn3)CC[C@]3(C)C(=CC[C@@H]4[C@@]5(C)CC[C@H](O)C(C)(C)[C@@H]5CC[C@]43C)[C@@H]2C1`, the KD in assay [2] is greater than 50 µM; in assay [4], 19.3 µM; in assay [3], greater than 50 µM.
For the compound `CC1(C)CC[C@]2(C(=O)NCc3cn(CCC(=O)O)nn3)CC[C@]3(C)C(=CC[C@@H]4[C@@]5(C)CC[C@H](O)C(C)(C)[C@@H]5CC[C@]43C)[C@@H]2C1`, the KD in assay [2] is greater than 50 µM; in assay [4], 13.0 µM; in assay [3], greater than 50 µM.
`CC1(C)CC[C@]2(C(=O)NCc3cn(CCCN4CCCC4)nn3)CC[C@]3(C)C(=CC[C@@H]4[C@@]5(C)CC[C@H](O)C(C)(C)[C@@H]5CC[C@]43C)[C@@H]2C1` displayed a KD in assay [1] greater than 50 µM.
Still for that read-out and setting: to `CC1(C)CC[C@]2(C(=O)NCc3cn(CCCN4CCOCC4)nn3)CC[C@]3(C)C(=CC[C@@H]4[C@@]5(C)CC[C@H](O)C(C)(C)[C@@H]5CC[C@]43C)[C@@H]2C1` belongs greater than 50 µM.
Consider `CC1(C)CC[C@]2(C(=O)NCc3cn(CCCc4ccccc4)nn3)CC[C@]3(C)C(=CC[C@@H]4[C@@]5(C)CC[C@H](O)C(C)(C)[C@@H]5CC[C@]43C)[C@@H]2C1`, for which the KD in assay [2], in assay [1] and in assay [3] was greater than 50 µM in each case.
The compound `CC1(C)CC[C@]2(C(=O)NCc3cn(CCN4CCCC4)nn3)CC[C@]3(C)C(=CC[C@@H]4[C@@]5(C)CC[C@H](O)C(C)(C)[C@@H]5CC[C@]43C)[C@@H]2C1` displayed a KD in assay [1] greater than 50 µM.
The same measure, in the same setting: to `CC1(C)CC[C@]2(C(=O)NCc3cn(CCN4CCOCC4)nn3)CC[C@]3(C)C(=CC[C@@H]4[C@@]5(C)CC[C@H](O)C(C)(C)[C@@H]5CC[C@]43C)[C@@H]2C1` belongs greater than 50 µM.
For the compound `CC1(C)CC[C@]2(C(=O)NCc3cn(Cc4ccc(C(F)(F)F)cc4)nn3)CC[C@]3(C)C(=CC[C@@H]4[C@@]5(C)CC[C@H](O)C(C)(C)[C@@H]5CC[C@]43C)[C@@H]2C1`, in assay [1], the KD is greater than 50 µM.
As for `CC1(C)CC[C@]2(C(=O)NCc3cn(Cc4ccccc4)nn3)CC[C@]3(C)C(=CC[C@@H]4[C@@]5(C)CC[C@H](O)C(C)(C)[C@@H]5CC[C@]43C)[C@@H]2C1`, the dissociation constant (KD) in assay [2], in assay [1] and in assay [3] was greater than 50 µM each time.
Consider `CC1(C)CC[C@]2(C(=O)NCc3cn(Cc4nc5ccccc5[nH]4)nn3)CC[C@]3(C)C(=CC[C@@H]4[C@@]5(C)CC[C@H](O)C(C)(C)[C@@H]5CC[C@]43C)[C@@H]2C1`, for which the figures for the KD in assay [2], in assay [4] and in assay [3] were greater than 50 µM, 10.6 µM and greater than 50 µM, respectively.
As to `CC1(C)CC[C@]2(C(=O)NCc3cn([C@@H]4O[C@H](CO)[C@@H](O)[C@H](O)[C@H]4O)nn3)CC[C@]3(C)C(=CC[C@@H]4[C@@]5(C)CC[C@H](O)C(C)(C)[C@@H]5CC[C@]43C)[C@@H]2C1`, the figures for the dissociation constant (KD) in assay [2], in assay [4] and in assay [3] were greater than 50 µM, 12.0 µM and greater than 50 µM, respectively.
Turning to `CN(C)CCn1cc(CNC(=O)[C@]23CCC(C)(C)C[C@H]2C2=CC[C@@H]4[C@@]5(C)CC[C@H](O)C(C)(C)[C@@H]5CC[C@@]4(C)[C@]2(C)CC3)nn1`, the equilibrium dissociation constant (KD) in assay [1] and in assay [3] was greater than 50 µM throughout.
Regarding `COC(=O)[C@]12CCC(C)(C)C[C@H]1C1=CC[C@@H]3[C@@]4(C)C=C(C(=O)NCCCN5CCCC5)C(=O)C(C)(C)[C@@H]4CC[C@@]3(C)[C@]1(C)CC2`, the KD in assay [1] is greater than 50 µM.
Still for that read-out and setting: to `COC(=O)[C@]12CCC(C)(C)C[C@H]1C1=CC[C@@H]3[C@@]4(C)C=C(C(=O)NCCCc5ccccc5)C(=O)C(C)(C)[C@@H]4CC[C@@]3(C)[C@]1(C)CC2` belongs greater than 50 µM.
Still for that read-out and setting: to `COC(=O)[C@]12CCC(C)(C)C[C@H]1C1=CC[C@@H]3[C@@]4(C)C=C(C(=O)NCCc5ccc(C(F)(F)F)cc5)C(=O)C(C)(C)[C@@H]4CC[C@@]3(C)[C@]1(C)CC2` belongs greater than 50 µM; to `COC(=O)[C@]12CCC(C)(C)C[C@H]1[C@H]1C(=O)C[C@@H]3[C@@](C)(CCC(=O)N4CCN(c5ccc(F)cc5F)CC4)[C@H](C(C)(C)O)CC[C@@]3(C)[C@]1(C)CC2`, greater than 50 µM.
For the compound `COC(=O)[C@]12CCC(C)(C)C[C@H]1[C@H]1C(=O)C[C@@H]3[C@@](C)(CCC(=O)NCCCN4CCOCC4)[C@H](C(C)(C)O)CC[C@@]3(C)[C@]1(C)CC2`, the KD was greater than 50 µM in assay [2], 31.3 µM in assay [4] and greater than 50 µM in assay [3].
In the case of `COC(=O)[C@]12CCC(C)(C)C[C@H]1[C@H]1C(=O)C[C@@H]3[C@@](C)(CCC(=O)NCCCn4ccnc4)[C@H](C(C)(C)O)CC[C@@]3(C)[C@]1(C)CC2`, the KD was greater than 50 µM in assay [2], 21.1 µM in assay [4] and greater than 50 µM in assay [3].
For `COC(=O)[C@]12CCC(C)(C)C[C@H]1[C@H]1C(=O)C[C@@H]3[C@@](C)(CCC(=O)NCCc4cccs4)[C@H](C(C)(C)O)CC[C@@]3(C)[C@]1(C)CC2`, the equilibrium dissociation constant (KD) in assay [1] was greater than 50 µM.
The same measure, in the same setting: the same measure for `COC(=O)[C@]12CCC(C)(C)C[C@H]1[C@H]1C(=O)C[C@@H]3[C@@](C)(CCC(=O)Nc4ccc(F)cc4)[C@H](C(C)(C)O)CC[C@@]3(C)[C@]1(C)CC2`: greater than 50 µM; for `COC(=O)[C@]12CCC(C)(C)C[C@H]1[C@H]1C(=O)C[C@@H]3[C@@](C)(CCC(=O)Nc4ccc(OC(F)(F)F)cc4)[C@H](C(C)(C)O)CC[C@@]3(C)[C@]1(C)CC2`: greater than 50 µM; for `COC(=O)[C@]12CCC(C)(C)C[C@H]1[C@H]1C(=O)C[C@@H]3[C@@](C)(CCC(=O)Nc4ccc(OC)cc4)[C@H](C(C)(C)O)CC[C@@]3(C)[C@]1(C)CC2`: greater than 50 µM.
On to `COc1ccc(C(=O)NCCNC(=O)[C@]23CCC(C)(C)C[C@H]2C2=CC[C@@H]4[C@@]5(C)CC[C@H](O)C(C)(C)[C@@H]5CC[C@@]4(C)[C@]2(C)CC3)c(OC)c1`, for which the equilibrium dissociation constant (KD) in assay [2], in assay [4] (tested up to 50 μM) and in assay [3] was greater than 50 µM each time.
`COc1ccccc1N1CCN(C(=O)[C@]23CCC(C)(C)C[C@H]2C2=CC[C@@H]4[C@@]5(C)CC[C@H](O)C(C)(C)[C@@H]5CC[C@@]4(C)[C@]2(C)CC3)CC1`: the dissociation constant KD in assay [2], in assay [1] and in assay [3] was greater than 50 µM each time.
Turning to `Cc1cn(CC(=O)N2CCN(C(=O)[C@]34CCC(C)(C)C[C@H]3C3=CC[C@@H]5[C@@]6(C)CC[C@H](O)C(C)(C)[C@@H]6CC[C@@]5(C)[C@]3(C)CC4)CC2)c(=O)[nH]c1=O`, the KD in assay [2], in assay [1] and in assay [3] was greater than 50 µM in each case.
